# Measurements from ChEMBL document CHEMBL1129549, “Complexes of HIV-1 reverse transcriptase with inhibitors of the HEPT series reveal conformational changes relevant to the design of potent non-nucleoside inhibitors” (J Med Chem, 1996).
# Target: Human immunodeficiency virus type 1 reverse transcriptase (Human immunodeficiency virus 1, UniProt Q72547)
# Assay: Inhibitory activity against HIV-1 reverse transcriptase
row,Compound,IC50 [µM]
1,CC(C)c1c(Cc2ccccc2)n(COCc2ccccc2)c(=O)[nH]c1=O,0.006
2,Cc1c(Sc2ccccc2)n(COCCO)c(=O)[nH]c1=O [HEPT],17
